In brackets after ≈: the same amount, converted by molar mass.

For the assay, the system named is multidrug-resistant (MDR) strains of Mycobacterium tuberculosis. The experiment in a line: microbe, parasite or virus in culture. The conditions noted are these: 192 h, read-out: Antitubercular activity against Mycobacterium tuberculosis MDR (MIC). It counts as cell-based.
On to `COC(=O)c1c(C(=O)OC)c2ccc3cc(C)ccc3n2c1C(=O)c1ccc(F)cc1` [7-METHYL-QUIN1, Dimethyl 1-(4-fluorobenzoyl)-7-methylpyrrolo[1,2-α]quinoline-2,3-dicarboxylate], for which the MIC was determined as 8 µg/mL (≈ 19.1 µM).

Consider `COC(=O)c1c(C(=O)OC)c2ccc3cc(C)ccc3n2c1C(=O)c1ccc(Br)cc1` [7-METHYL-QUIN2, Dimethyl 1-(4-bromobenzoyl)-7-methylpyrrolo[1,2-α]quinoline-2,3-dicarboxylate], for which the MIC stood at 16 µg/mL (≈ 33.3 µM). With `CCOC(=O)c1cc(C(=O)c2ccc(Cl)cc2)n2c1ccc1cc(C)ccc12` [7-METHYL-QUIN3, Ethyl 1-(4-chlorobenzoyl)-7-methylpyrrolo[1,2-α]quinoline-3-carboxylate], the MIC is 4 µg/mL (≈ 10.2 µM). To `COC(=O)c1c(C(=O)OC)c2ccc3cc(C)ccc3n2c1C(=O)c1ccc(Cl)cc1` [7-METHYL-QUIN4, Dimethyl 1-(4-chlorobenzoyl)-7-methylpyrrolo[1,2-α]quinoline-2,3-dicarboxylate] belongs 4 µg/mL (≈ 9.18 µM).

For the origin of these results see patent publication US11926627B1 (priority 2023, dated 2024).
